The values that follow come from patent publication US12624044B2, “SMARCA degraders and uses thereof” (Kymera Therapeutics, Inc., priority 2019, dated 2026).

Common to all, as to type: cell-based
The target in assay [1] is T1, SMARCA2 (Homo sapiens, UniProt P51531). Briefly: SMARCA2 Western blot MV4-11 degradation. The following applies: for Dmax: MV4-11, MV4-11 cells, read-out: SMARCA2 WB MV411 degradation 24 h: Average Dmax %; for Dmax / DC50: 24 h; for DC50 / SMARCA2 WB MV411 degradation 24 h: Average Dmax %: MV4-11 cells; for DC50: read-out: SMARCA2 WB MV411 degradation 24 h: Average external-Abs DC50. Put shortly:
(§1)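 MV4-11 cells treated with compound for 24 h, lysed in RIPA with protease/phosphatase inhibitors, and SMARCA2 and SMARCA4 (BRG1) levels assessed by Western blot with β-actin loading control and LI-COR fluorescent read-out. Maximal degradation (Dmax %) after 24 h binned into letter codes.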

For another assay, the target named is T2, SMARCA4 (Homo sapiens, UniProt P51532).
T2 construct: SMARCA2 and SMARCA4 protein degradation in MV4-11 cells; endogenous in cells; host or cells: MV4-11
T2 sequence (P51532 whole entry): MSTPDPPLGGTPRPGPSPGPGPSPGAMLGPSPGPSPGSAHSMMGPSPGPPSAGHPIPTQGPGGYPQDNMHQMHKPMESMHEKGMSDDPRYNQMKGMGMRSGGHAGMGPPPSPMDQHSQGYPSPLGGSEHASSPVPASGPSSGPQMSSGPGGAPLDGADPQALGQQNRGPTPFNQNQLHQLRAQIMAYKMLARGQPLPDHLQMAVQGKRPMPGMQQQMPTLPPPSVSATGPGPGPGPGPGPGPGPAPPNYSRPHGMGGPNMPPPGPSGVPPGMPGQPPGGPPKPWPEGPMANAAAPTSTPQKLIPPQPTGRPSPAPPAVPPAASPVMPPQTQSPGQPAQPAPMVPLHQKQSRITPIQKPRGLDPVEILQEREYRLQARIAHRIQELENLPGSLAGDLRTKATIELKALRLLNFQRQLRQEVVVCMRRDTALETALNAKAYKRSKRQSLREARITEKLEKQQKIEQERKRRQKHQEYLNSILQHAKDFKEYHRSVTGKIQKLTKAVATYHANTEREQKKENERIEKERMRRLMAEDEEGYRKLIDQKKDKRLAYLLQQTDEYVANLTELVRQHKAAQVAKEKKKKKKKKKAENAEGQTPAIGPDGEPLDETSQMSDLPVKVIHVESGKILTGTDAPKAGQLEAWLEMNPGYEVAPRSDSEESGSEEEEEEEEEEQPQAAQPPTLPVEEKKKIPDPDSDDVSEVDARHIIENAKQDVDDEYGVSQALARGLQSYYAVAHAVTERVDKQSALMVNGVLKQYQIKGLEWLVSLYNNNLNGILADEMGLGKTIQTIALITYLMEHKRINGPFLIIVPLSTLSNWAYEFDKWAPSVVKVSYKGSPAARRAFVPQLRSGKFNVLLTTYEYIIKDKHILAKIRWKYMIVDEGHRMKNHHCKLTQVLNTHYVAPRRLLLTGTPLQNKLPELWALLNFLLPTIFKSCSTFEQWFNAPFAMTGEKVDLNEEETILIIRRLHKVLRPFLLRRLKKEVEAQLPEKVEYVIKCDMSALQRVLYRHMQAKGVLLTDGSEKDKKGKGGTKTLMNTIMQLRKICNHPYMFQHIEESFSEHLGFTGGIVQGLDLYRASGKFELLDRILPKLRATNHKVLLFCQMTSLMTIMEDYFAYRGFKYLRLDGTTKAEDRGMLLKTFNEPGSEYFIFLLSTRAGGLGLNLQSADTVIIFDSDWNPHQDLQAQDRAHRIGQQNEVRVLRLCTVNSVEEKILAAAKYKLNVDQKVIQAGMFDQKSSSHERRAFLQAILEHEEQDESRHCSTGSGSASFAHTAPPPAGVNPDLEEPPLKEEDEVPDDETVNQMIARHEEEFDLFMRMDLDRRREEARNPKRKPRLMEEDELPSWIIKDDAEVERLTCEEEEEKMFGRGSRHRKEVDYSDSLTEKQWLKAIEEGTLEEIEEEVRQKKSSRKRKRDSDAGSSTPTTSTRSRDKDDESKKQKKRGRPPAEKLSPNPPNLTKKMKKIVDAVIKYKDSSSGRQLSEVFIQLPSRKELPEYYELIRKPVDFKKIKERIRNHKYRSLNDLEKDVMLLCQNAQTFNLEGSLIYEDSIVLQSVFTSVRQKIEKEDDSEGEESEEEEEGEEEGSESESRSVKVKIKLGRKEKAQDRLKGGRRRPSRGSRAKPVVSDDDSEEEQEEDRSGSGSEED
Briefly: SMARCA4 Western blot MV4-11 degradation. The following applies: for Dmax: MV4-11, MV4-11 cells, read-out: SMARCA4 WB MV411 degradation 24 h: Average Dmax %; for Dmax / DC50: 24 h; for DC50 / SMARCA4 WB MV411 degradation 24 h: Average Dmax %: MV4-11 cells; for DC50: read-out: SMARCA4 WB MV411 degradation 24 h: Average external-Abs DC50. An outline of the steps:
as §1
(In general: In western blotting, separated proteins are transferred to a membrane and probed.)

The target in assay [2] is T1, SMARCA2. Briefly: MSD SMARCA2 degradation in A549 cell line. The following applies: for Dmax: A549, A549 cells; for Dmax / DC50: 24 h; for DC50 / SMARCA2 MSD A549 degradation 24 h: Average Dmax %: A549 cells; for DC50: read-out: SMARCA2 MSD A549 degradation 24 h: Average external-Abs DC50. Put shortly:
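SMARCA2 remaining was measured by MSD electrochemiluminescence on RIPA lysates (anti-SMARCA2 plus SULFO-TAG anti-rabbit). Prior exposure: 24 h of A549 cells to a 10-point, 3-fold dilution series topping at 1000 nM final; Dmax % given as graded codes.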

T1 sequence (P51531 whole entry): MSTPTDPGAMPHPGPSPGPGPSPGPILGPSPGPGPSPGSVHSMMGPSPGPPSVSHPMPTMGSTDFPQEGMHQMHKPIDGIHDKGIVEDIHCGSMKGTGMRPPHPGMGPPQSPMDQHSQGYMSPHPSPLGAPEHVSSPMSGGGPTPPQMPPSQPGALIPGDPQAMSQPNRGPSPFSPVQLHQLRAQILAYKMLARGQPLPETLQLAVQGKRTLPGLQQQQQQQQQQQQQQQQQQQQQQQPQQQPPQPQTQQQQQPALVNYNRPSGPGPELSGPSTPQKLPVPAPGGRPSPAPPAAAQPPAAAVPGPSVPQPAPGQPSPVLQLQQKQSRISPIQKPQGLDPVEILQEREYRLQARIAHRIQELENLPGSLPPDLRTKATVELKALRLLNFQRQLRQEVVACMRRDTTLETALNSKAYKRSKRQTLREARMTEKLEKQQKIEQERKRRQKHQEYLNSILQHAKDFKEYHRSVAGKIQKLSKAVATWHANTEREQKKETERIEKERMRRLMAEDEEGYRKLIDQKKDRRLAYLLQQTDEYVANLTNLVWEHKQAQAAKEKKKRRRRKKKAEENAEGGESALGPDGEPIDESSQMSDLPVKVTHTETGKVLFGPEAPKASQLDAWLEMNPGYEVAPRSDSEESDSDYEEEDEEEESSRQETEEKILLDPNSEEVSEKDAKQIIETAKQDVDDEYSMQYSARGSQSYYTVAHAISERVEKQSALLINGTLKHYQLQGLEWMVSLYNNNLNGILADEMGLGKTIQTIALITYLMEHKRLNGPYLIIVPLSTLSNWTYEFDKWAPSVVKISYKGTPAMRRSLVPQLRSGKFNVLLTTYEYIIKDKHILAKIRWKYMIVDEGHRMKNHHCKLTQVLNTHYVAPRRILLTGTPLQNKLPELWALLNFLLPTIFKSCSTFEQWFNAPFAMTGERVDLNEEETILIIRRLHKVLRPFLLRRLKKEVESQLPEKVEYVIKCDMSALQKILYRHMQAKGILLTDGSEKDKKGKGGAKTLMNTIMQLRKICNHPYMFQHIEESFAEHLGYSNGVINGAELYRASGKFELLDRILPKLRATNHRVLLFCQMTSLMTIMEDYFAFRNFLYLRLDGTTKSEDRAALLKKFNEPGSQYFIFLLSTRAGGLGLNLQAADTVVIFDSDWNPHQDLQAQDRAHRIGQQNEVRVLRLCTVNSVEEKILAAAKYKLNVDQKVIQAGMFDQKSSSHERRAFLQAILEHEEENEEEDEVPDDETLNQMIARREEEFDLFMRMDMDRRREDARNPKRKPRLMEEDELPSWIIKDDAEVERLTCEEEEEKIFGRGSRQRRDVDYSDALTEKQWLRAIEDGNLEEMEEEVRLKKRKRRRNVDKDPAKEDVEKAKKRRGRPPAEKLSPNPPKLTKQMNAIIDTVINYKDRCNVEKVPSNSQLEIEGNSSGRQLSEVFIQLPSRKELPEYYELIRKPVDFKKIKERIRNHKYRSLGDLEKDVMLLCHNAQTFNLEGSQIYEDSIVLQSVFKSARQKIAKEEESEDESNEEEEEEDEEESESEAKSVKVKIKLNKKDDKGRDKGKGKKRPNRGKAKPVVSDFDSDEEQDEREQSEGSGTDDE

The Dmax is the largest share of the target that was removed. The term DC50 denotes the concentration giving 50% degradation. Consider `Cc1ncsc1-c1ccc(CNC(=O)[C@@H]2C[C@@H](O)CN2C(=O)[C@@H](NC(=O)C2CCC(c3cnc(N4C5CCC4CN(c4cc(-c6ccccc6O)nnc4N)C5)nc3)CC2C)C(C)(C)C)cc1` (some centres unmarked) [I-411], for which the results for the Dmax at SMARCA2 [1], at SMARCA4 and on SMARCA2 [2] were over 90%, over 90% and 50 to 70%, respectively. The DC50 is under 100 nM on SMARCA2 [1], under 100 nM at SMARCA4 and 501 to 1000 nM at SMARCA2 [2].
Consider `Cc1ncsc1-c1ccc(CNC(=O)[C@@H]2C[C@@H](O)CN2C(=O)[C@@H](NC(=O)[C@H]2CC[C@H](c3cnc(N4C5CCC4CN(c4cc(-c6ccccc6O)nnc4N)C5)nc3C)CC2)C(C)(C)C)cc1` [I-412], for which the maximal degradation (Dmax) at SMARCA2 [1], at SMARCA4 and at SMARCA2 [2] was over 90% each time. Further, the DC50 on SMARCA2 [1], on SMARCA4 and on SMARCA2 [2] was under 100 nM each time.
With `Cc1ncsc1-c1ccc(CNC(=O)[C@@H]2C[C@@H](O)CN2C(=O)[C@@H](NC(=O)[C@H]2CC3(C2)C[C@H](c2cnc(N4C5CCC4CN(c4cc(-c6ccccc6O)nnc4N)C5)nc2)C3)C(C)(C)C)c(C(F)(F)F)c1` (some centres unmarked) [I-419], the maximal degradation (Dmax) at SMARCA2 [1] was over 90%; at SMARCA4, 70 to 90%; on SMARCA2 [2], over 90%. Besides, the DC50 on SMARCA2 [1] was under 100 nM; on SMARCA4, 100 to 500 nM; at SMARCA2 [2], 100 to 500 nM.
Consider `Cc1ncsc1-c1ccc(CNC(=O)[C@@H]2C[C@@H](O)CN2C(=O)[C@@H](NC(=O)[C@H]2C[C@]3(C2)C[C@H](c2cnc(N4C5CCC4CN(c4cc(-c6ccccc6O)nnc4N)C5)nc2)C3)C(C)(C)C)c(C(F)(F)F)c1` (some centres unmarked) [I-420], for which, on SMARCA2 [1], the “SMARCA2 WB MV411 degradation 24 h: Average Dmax %” value is reported as “B (B (>70-90% degradation))” and the DC50 is under 100 nM. Moreover, on SMARCA4, the “SMARCA4 WB MV411 degradation 24 h: Average Dmax %” value was “D (D (<50% degradation))” and the half-maximal degradation concentration (DC50) was in the range of 100 to 500 nM. Also, at SMARCA2 [2], the “SMARCA2 MSD A549 degradation 24 h: Average Dmax %” value is “A (A (>90% degradation))” and the DC50 is 100 to 500 nM.
Regarding `Cc1ncsc1-c1ccc(CNC(=O)[C@@H]2C[C@@H](O)CN2C(=O)[C@@H](NC(=O)[C@H]2CC3(C2)C[C@H](N2CCC(c4cnc(N5C6CCC5CN(c5cc(-c7ccccc7O)nnc5N)C6)nc4)CC2)C3)C(C)(C)C)cc1` (some centres unmarked) [I-423], the greatest degradation seen (Dmax) is over 90% on SMARCA2 [1], 50 to 70% on SMARCA4 and over 90% at SMARCA2 [2]. Further, the DC50 at SMARCA2 [1] was under 100 nM; at SMARCA4 it was 100 to 500 nM; at SMARCA2 [2], under 100 nM.
For the compound `Cc1ncsc1-c1ccc(CNC(=O)[C@@H]2C[C@@H](O)CN2C(=O)[C@@H](NC(=O)[C@H]2CC3(C2)C[C@H](N2CCC(c4cnc(N5C6CCC5CN(c5cc(-c7ccccc7O)nnc5N)C6)nc4)CC2)C3)C(C)(C)C)cc1` (some centres unmarked) [I-424], on SMARCA2 [1], the “SMARCA2 WB MV411 degradation 24 h: Average Dmax %” value is listed as “A (A (>90% degradation))” and the DC50 was under 100 nM. Moreover, on SMARCA4, the “SMARCA4 WB MV411 degradation 24 h: Average Dmax %” value is recorded as “D (D (<50% degradation))” and the DC50 was over 1000 nM. Besides, on SMARCA2 [2], the “SMARCA2 MSD A549 degradation 24 h: Average Dmax %” value was “A (A (>90% degradation))” and the DC50 is under 100 nM.
In the case of `Cc1ncsc1-c1ccc(CNC(=O)[C@@H]2C[C@@H](O)CN2C(=O)[C@@H](NC(=O)C23CCC(CN4CCC(c5cnc(N6C7CCC6CN(c6cc(-c8ccccc8O)nnc6N)C7)nc5)CC4)(CC2)CC3)C(C)(C)C)cc1` [I-425], the Dmax was over 90% on SMARCA2 [1], 70 to 90% at SMARCA4 and over 90% on SMARCA2 [2]. Besides, the figures for the DC50 at SMARCA2 [1], on SMARCA4 and at SMARCA2 [2] were under 100 nM, 100 to 500 nM and under 100 nM, respectively.
Turning to `Cc1ncsc1-c1ccc(CNC(=O)[C@@H]2C[C@@H](O)CN2C(=O)[C@@H](NC(=O)[C@H]2C[C@]3(C[C@H](CN4CCC(c5cnc(N6C7CCC6CN(c6cc(-c8ccccc8O)nnc6N)C7)nc5)CC4)C3)C2)C(C)(C)C)cc1` (some centres unmarked) [I-427], the values for the Dmax on SMARCA2 [1] and on SMARCA4 were over 90% and under 50%, respectively. Also, the DC50 at SMARCA2 [1] was under 100 nM; at SMARCA4, 100 to 500 nM; at SMARCA2 [2], under 100 nM.
Take `Cc1ncsc1-c1ccc(CNC(=O)[C@@H]2C[C@@H](O)CN2C(=O)[C@@H](NC(=O)C23CCC(CN4CCC(n5cc(-c6cc(-c7ccccc7O)nnc6N)cn5)CC4)(CC2)CC3)C(C)(C)C)cc1` [I-428]: the Dmax on SMARCA2 [1] is over 90%; on SMARCA4 it was 70 to 90%; on SMARCA2 [2], over 90%. Moreover, the figures for the DC50 at SMARCA2 [1], on SMARCA4 and on SMARCA2 [2] were under 100 nM, 100 to 500 nM and 100 to 500 nM, respectively.
Take `CC(=O)Nc1cc(-c2scnc2C)ccc1CNC(=O)[C@@H]1C[C@@H](O)CN1C(=O)[C@@H](NC(=O)[C@H]1CC[C@H](c2cnc(N3C4CCC3CN(c3cc(-c5ccccc5O)nnc3N)C4)nc2)CC1)C(C)(C)C` [I-430, (2S,4R)—N-(2-acetamido-4-(4-methylthiazol-5-yl)benzyl)-1-((2S)-2-((1r,4S)-4-(2-(3-(3-amino-6-(2-hydroxyphenyl)pyridazin-4-yl)-3,8-diazabicyclo [3.2.1]octan-8-yl)pyrimidin-5-yl)cyclohexanecarboxamido)-3,3-dimethylbutanoyl)-4-hydroxypyrrolidine-2-carboxamide]: the Dmax on SMARCA2 [1], at SMARCA4 and on SMARCA2 [2] was over 90% throughout. The DC50 on SMARCA2 [1], at SMARCA4 and on SMARCA2 [2] was under 100 nM in each case.
Take `Cc1ncsc1-c1ccc(CNC(=O)[C@@H]2C[C@@H](O)CN2C(=O)[C@@H](NC(=O)[C@H]2CC[C@H](c3cnc(N4C5CCC4CN(c4cc(-c6ccccc6O)nnc4N)C5)nc3)CC2)C(C)(C)C)c(C(=O)N(C)C)c1` [I-431]: the greatest degradation seen (Dmax) at SMARCA2 [1], at SMARCA4 and at SMARCA2 [2] was over 90% throughout. Further, the DC50 at SMARCA2 [1], at SMARCA4 and on SMARCA2 [2] was under 100 nM throughout.
Take `Cc1ncsc1-c1ccc(CNC(=O)[C@@H]2C[C@@H](O)CN2C(=O)[C@@H](NC(=O)[C@H]2CC3(C2)C[C@H](c2ccc(CN4CCC(Cn5cc(-c6cc(-c7ccccc7O)nnc6N)cn5)CC4)cc2)C3)C(C)(C)C)cc1` (some centres unmarked) [I-433]: the greatest degradation seen (Dmax) at SMARCA2 [1] and on SMARCA2 [2] was over 90% throughout. The DC50 on SMARCA2 [1], on SMARCA4 and at SMARCA2 [2] was under 100 nM each time. For the same compound, the “SMARCA4 WB MV411 degradation 24 h: Average Dmax %” value at SMARCA4 is reported as “C (C (50-70% degradation))”.
Consider `Cc1ncsc1-c1ccc(CNC(=O)[C@@H]2C[C@@H](O)CN2C(=O)[C@@H](NC(=O)[C@H]2C[C@@]3(C2)C[C@H](c2ccc(CN4CCC(Cn5cc(-c6cc(-c7ccccc7O)nnc6N)cn5)CC4)cc2)C3)C(C)(C)C)cc1` (some centres unmarked) [I-434], for which, on SMARCA2 [1], the “SMARCA2 WB MV411 degradation 24 h: Average Dmax %” value is on record as “A (A (>90% degradation))” and the DC50 was under 100 nM. On SMARCA4, the “SMARCA4 WB MV411 degradation 24 h: Average Dmax %” value is listed as “A (A (>90% degradation))” and the DC50 was under 100 nM. On SMARCA2 [2], the “SMARCA2 MSD A549 degradation 24 h: Average Dmax %” value is “A (A (>90% degradation))” and the DC50 is under 100 nM.
Take `Cc1ncsc1-c1ccc(CNC(=O)[C@@H]2C[C@@H](O)CN2C(=O)[C@@H](NC(=O)[C@H]2CC[C@H](Cc3ccc(-c4cnc(N5C6CCC5CN(c5cc(-c7ccccc7O)nnc5N)C6)nc4)cc3)CC2)C(C)(C)C)cc1` [I-437]: the Dmax at SMARCA2 [1], at SMARCA4 and on SMARCA2 [2] was over 90% each time. Also, the figures for the DC50 at SMARCA2 [1], on SMARCA4 and at SMARCA2 [2] were under 100 nM, 100 to 500 nM and under 100 nM, respectively.
As to `Cc1ncsc1-c1ccc([C@H](C)NC(=O)[C@@H]2C[C@@H](O)CN2C(=O)[C@@H](NC(=O)[C@H]2CC[C@H](c3cnc(N4C5CCC4CN(c4cc(-c6ccccc6O)nnc4N)C5)nc3)CC2)C(C)(C)C)cc1` [I-438], the Dmax at SMARCA2 [1], on SMARCA4 and on SMARCA2 [2] was over 90% throughout. In addition, the DC50 at SMARCA2 [1], at SMARCA4 and on SMARCA2 [2] was under 100 nM in each case.
In the case of `Cc1ncsc1-c1ccc(C2(NC(=O)[C@@H]3C[C@@H](O)CN3C(=O)[C@@H](NC(=O)[C@H]3CC[C@H](c4cnc(N5C6CCC5CN(c5cc(-c7ccccc7O)nnc5N)C6)nc4)CC3)C(C)(C)C)CC2)cc1` [I-439], the Dmax on SMARCA2 [1], on SMARCA4 and at SMARCA2 [2] was over 90% each time. The DC50 on SMARCA2 [1], at SMARCA4 and at SMARCA2 [2] was under 100 nM in each case.
For the compound `Cc1ncsc1-c1ccc(CNC(=O)[C@@H]2C[C@@H](O)CN2C(=O)[C@@H](NC(=O)C2CCC(c3cnc(N4C5CCC4CN(c4cc(-c6ccccc6O)nnc4N)C5)nc3)CC2C)C(C)(C)C)cc1` (some centres unmarked) [I-444], the DC50 on SMARCA2 [1] is under 100 nM; at SMARCA4, under 100 nM; at SMARCA2 [2] it was 501 to 1000 nM.
On to `Cc1ncsc1-c1ccc(CNC(=O)[C@@H]2C[C@@H](O)CN2C(=O)[C@@H](NC(=O)C2CC(N3CCC(n4cc(-c5cc(-c6ccccc6O)nnc5N)cn4)CC3)C2)C(C)(C)C)cc1` (some centres unmarked) [I-484], for which the Dmax at SMARCA2 [1] is over 90%; at SMARCA4 it was 70 to 90%; on SMARCA2 [2], 70 to 90%. The DC50 on SMARCA2 [1] is under 100 nM; on SMARCA4 it was 100 to 500 nM; at SMARCA2 [2], 100 to 500 nM.
